Reference: US20030013643A1, “Prevention and treatment of streptococcal and staphylococcal infection” (priority 2000, published 2003)

Legend:
[1] = tested on: Streptococcus pneumoniae (S. pneumo, type 6); experiment: Bacterial binding to human keratinocyte monolayers, S. pneumoniae; type: cell-based; settings: 1 mg/ml pre-incubation; multiplicity of infection 10; 1 hour
Experimental: (§1) Keratinocyte monolayers were prepared as descibed above in Methods section and pre-incubated with 1 mg/ml alginate (AL, solid bars) or 1 mg/ml hyaluronic acid (HA, hatched bars) prior to surface inoculation (as described above in Methods) with either Group A Streptococcus (GAS, strain 950771), Group B Streptococcus (GBS, strain 515), Streptococcus pneumoniae (S. pneumo, type 6), or Staphylococcus aureus (S. aureus, type 8) at a multiplicity of infection of 10 bacteria per keratinocyte for 1 hour.

GAS 950771 or GAS 282 = experiment: GAS binding to and displacement from human keratinocyte monolayers; type: cell-based, Streptococcus pyogenes; settings: 1 mg/ml
GAS = GAS translocation through abraded human skin equivalent; type: cell-based, Streptococcus pyogenes; settings: pre-treated at 2 mg/ml for 1 hour; 4 hour infection period
Experimental: To examine GAS translocation in a model system similar to normal human skin, we utilized pseudo-organ cultures of human skin equivalent. This material is made by constructing a “dermis” that consists of human fibroblasts cultured in a collagen matrix; human foreskin keratinocytes are seeded on top of the dermal equivalent and cultured under conditions that promote differentiation into a stratified squamous epithelium with a stratum comeum. The histology of the human skin equivalent is very similar to that of normal human skin except for the absence of non-keratinocyte elements such as blood vessels and hematopoietic cells, nerves, and hair follicles. Since intact human skin is highly resistant to GAS infection, we simulated minor trauma to the superficial epidermis by abrading the surface of the skin equivalent with a cytology brush to introduce breaks in the stratum corneum. GAS were inoculated onto the surface of abraded skin equivalent that had either been pre-treated with nothing, HA, or AL at 2 mg/ml for 1 hour and translocation through the tissue was monitored by culture of GAS from the basal surface of the skin equivalent at intervals. As depicted in FIG. 10, HA inhibited translocation GAS by 91% (solid bars). In comparison the AL control prevented only 14% of bacteria from translocating through the skin equivalent during the 4 hour infection period. […]

[2] = tested on: wild-type GAS, strain 950771; experiment: GAS translocation through polarized human keratinocyte monolayers; type: cell-based, Streptococcus pyogenes; settings: pre-treated 30 minutes with 2 mg/ml, compared to untreated monolayers
Experimental: Human keratinocytes were cultured on 3.0 μm filters to allow polarization and establishment of functional intercellular tight junctions. Cells were infected as described previously with wild-type GAS, strain 950771. To assess the ability of exogenously added HA to inhibit the translocation of GAS through the keratinocyte monolayer, cells were pre-treated for 30 minutes with either 2 mg/ml of hyaluronic acid (HA) or another acidic polysaccharide, alginate (AL), at the same concentration. Aliquots of media from the lower chamber of infected keratinocyte monolayers were cultured on blood agar plates at 1 and 2 hours after inoculation with bacteria to assess the number of translocating bacteria. […] In contrast only 20% and 25% of the wild-type bacteria were blocked by AL at 1 and 2 hours, respectively.
GAS strains were 950771, an M-type 3 strain originally isolated from a child with necrotizing fasciitis, and 188, an isogenic acapsular mutant derived from 950771 (Ashbaugh, C. D., et al., (1998) J. Clin. Invest. 102, 550-560). Bacteria were cultured in Todd Hewitt broth (Difco, Sparks, Md.) to early exponential phase. For preparation of polarized keratinocyte monolayers, human squamous cell carcinoma cell line, SCC13, derived from cheek epidermis (Cline, P. R. & Rice, R. H. (1983) Cancer Res. 43, 3203-3207) was cultured to confluence in serum-free keratinocyte medium (Gibco BRL, Rockville, Md.) supplemented with 50 μg/ml bovine pituitary extract, 0.1 ng/ml epidermal growth factor and 0.3 mM calcium chloride (c-SFM). Certain experiments were performed also using cell monolayers prepared from OKP7 primary human keratinocytes (Crowe et al. (1991) Differentiation 48, 199-208). Keratinocytes were seeded at 5×10^5 cells per well onto polycarbonate Transwell membrane supports (12-well plates, 3.0 μm pore size; Costar, Corning, N.Y.) and cultured for 6-10 days at 37° C. with 5% CO2 in c-SFM, with daily medium changes. Once confluent, the integrity of the monolayer was assessed routinely by measuring permeability to sodium fluorescein (Tchao, R. (1988) Alternative Methods in Toxicology (eds. Goldberg, A. M.) 271-283 (Ann Liebert, N.Y.) and, in some experiments, by measuring transepithelial electrical resistance (McNamara, B. P., et al. (2001) J Clin Invest 107, 621-9).
Keratinocyte monolayers on Transwells were inoculated with GAS at a multiplicity of infection of 10 per keratinocyte. Monolayers were incubated at 37° C. with 5% CO2. The keratinocyte medium in the upper chamber was replaced two hours after adding GAS, and the Transwell inserts containing the keratinocytes were moved to new wells containing fresh medium every 2 hours to prevent overgrowth of translocated bacteria. Translocation was assessed by quantitative cultures of medium from the lower chamber at 2 hour intervals.
As a model of the movement of GAS from the pharyngeal mucosa or skin surface into underlying tissue, GAS translocation was studied in vitro through keratinocyte monolayers. Two hours after inoculation onto the surface of a confluent keratinocyte monolayer, wild-type GAS was detected in the culture medium below the membrane support, indicating migration of the organisms through the monolayer. At each of several intervals after inoculation, approximately 20 to 100 times as many GAS were recovered below monolayers inoculated with wild-type GAS compared to those inoculated with the acapsular mutant strain.(Figure 12a). […] Compared to wild-type GAS strain 950771, the efficiency of translocation was similar for wild-type GAS strains 87-282, a highly encapsulated M-type 18 strain, and for DLS003, a poorly encapsulated M-type 3 strain. Translocation of wild-type GAS was reduced by 78% at 1 hour in experiments in which the keratinocyte monolayers were pretreated with monoclonal antibody IM7.8.1 to block interaction of the GAS capsule with CD44 . […]

[3] = tested on: Group B Streptococcus (GBS, strain 515); experiment: Bacterial binding to human keratinocyte monolayers, GBS; type: cell-based; settings: 1 mg/ml pre-incubation; multiplicity of infection 10; 1 hour
Experimental: as §1

## hyaluronic acid
[1]
  inhibition of binding: more than 80%
GAS 950771 or GAS 282; GAS 950771 or GAS 282, not strain specific
  inhibition of GAS binding to human cells: block GAS binding to human cells
GAS 950771 or GAS 282; after 45 minutes
  displacement of bound bacteria: displaced bound GAS
GAS
  inhibition of translocation of GAS through skin equivalent: 91%
[2]; 1 hour after inoculation
  blocking of translocating GAS: 100%
[2]; 2 hours after inoculation
  blocking of translocating GAS: 100%
[3]
  inhibition of binding: more than 80%
